pKi: −log10 of the molar value.
molecular target: human PDE10A2 (Homo sapiens (Human), UniProt Q9Y233); test: PDE10 fluorescence polarization (IMAP FP) inhibition assay; type: biochemical; conditions: FAM-labeled cAMP 50 nM, room temperature, read-out: PDE10a Ki
Outline: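 Cytoplasmic lysate of AD293 cells transiently expressing human PDE10A2, incubated 30 minutes at room temperature with 50 nM FAM-labeled cAMP in Tris pH 7.2 with MgCl2. Read by IMAP fluorescence polarization; 0% inhibition set by 1% DMSO, 100% by a reference PDE10 inhibitor.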

Sequence of human PDE10A2 (Q9Y233 267-1055): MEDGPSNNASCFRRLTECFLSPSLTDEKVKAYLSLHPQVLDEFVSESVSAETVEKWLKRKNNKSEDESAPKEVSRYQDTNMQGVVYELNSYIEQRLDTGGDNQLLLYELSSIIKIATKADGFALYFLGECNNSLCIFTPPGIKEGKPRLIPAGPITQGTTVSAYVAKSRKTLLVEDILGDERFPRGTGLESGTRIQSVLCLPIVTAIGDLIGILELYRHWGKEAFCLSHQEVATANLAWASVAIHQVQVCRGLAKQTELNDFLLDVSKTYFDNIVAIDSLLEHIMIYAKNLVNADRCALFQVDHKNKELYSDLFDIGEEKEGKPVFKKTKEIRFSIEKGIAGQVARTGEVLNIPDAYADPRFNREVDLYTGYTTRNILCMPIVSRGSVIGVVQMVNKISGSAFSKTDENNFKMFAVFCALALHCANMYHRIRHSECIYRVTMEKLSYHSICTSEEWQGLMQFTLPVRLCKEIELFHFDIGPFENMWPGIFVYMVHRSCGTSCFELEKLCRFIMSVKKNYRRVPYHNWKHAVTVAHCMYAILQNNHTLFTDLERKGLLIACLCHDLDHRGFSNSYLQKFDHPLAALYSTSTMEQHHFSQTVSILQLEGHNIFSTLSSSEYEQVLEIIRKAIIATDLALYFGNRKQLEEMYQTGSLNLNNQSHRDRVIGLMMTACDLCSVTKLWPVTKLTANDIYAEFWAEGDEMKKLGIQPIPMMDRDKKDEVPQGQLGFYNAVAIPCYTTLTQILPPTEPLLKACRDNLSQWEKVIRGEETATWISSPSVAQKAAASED

SMILES | pKi
Cc1nc([C@H]2C[C@@H]2c2nc3ccccc3n2C)cc(-n2nc(C)nc2O)n1 (stereo in doubt) [Cpd 78, 3-methyl-1-{2-methyl-6-[2-(1-methyl-1H-benzimidazol-2-yl)cyclopropyl]pyrimidin-4-yl}-1H-1,2,4-triazol-5-ol] | < 7.12
Cc1nc([C@@H]2C[C@H]2c2cc3n(n2)CCCC3)cc(-n2nc(C)nc2C)n1 [Cpd 107, 2-{(1R,2R)-2-[6-(3,5-dimethyl-1H-1,2,4-triazol-1-yl)-2-methylpyrimidin-4-yl]cyclopropyl}-4,5,6,7-tetrahydropyrazolo[1,5-a]pyridine] | 7.22
COCc1ncnn1-c1cc([C@@H]2C[C@H]2c2nc3ccccc3n2C)nc(C)n1 [Cpd 94, 2-[(1R,2R)-2-{6-[5-(methoxymethyl)-1H-1,2,4-triazol-1-yl]-2-methylpyrimidin-4-yl}cyclopropyl]-1-methyl-1H-benzimidazole] | 8.28
COc1ccc(Cc2nc(C)nn2-c2cc(C3CC3c3ccc(C)cn3)nc(C)n2)cc1OC (centres unmarked) [Cpd 35, 4-(5-(3,4-dimethoxybenzyl)-3-methyl-1H-1,2,4-triazol-1-yl)-2-methyl-6-(2-(5-methylpyridin-2-yl)cyclopropyl)pyrimidine] | 9.68
Cc1nc(C2CC2c2nc3ccc(Cl)cc3[nH]2)cc(-n2nc(C)nc2C)n1 (centres unmarked) [Cpd 57, 6-chloro-2-(2-(6-(3,5-dimethyl-1H-1,2,4-triazol-1-yl)-2-methylpyrimidin-4-yl)cyclopropyl)-1H-benzo[d]imidazole] | 7.51
Cc1nc([C@@H]2C[C@H]2c2nc3ccccc3n2Cc2ccccn2)cc(-n2nc(C)nc2C)n1 (stereo in doubt) [Cpd 73, 2-{2-[6-(3,5-dimethyl-1H-1,2,4-triazol-1-yl)-2-methylpyrimidin-4-yl]cyclopropyl}-1-(pyridin-2-ylmethyl)-1H-benzimidazole] | 7.88
COc1ccc(Cc2nc(C)nn2-c2cc(CCc3ccc4ccccc4n3)nc(C)n2)nc1OC [Cpd 8, 2-(2-(6-(5-((5,6-dimethoxypyridin-2-yl)methyl)-3-methyl-1H-1,2,4-triazol-1-yl)-2-methylpyrimidin-4-yl)ethyl)quinoline] | 10.55
Cc1nc(C)n(-c2cc([C@@H]3C[C@H]3c3nc4ccccc4n3C)nc(N3CCC[C@H]3C)n2)n1 [Cpd 133, 2-((1R,2R)-2-(6-(3,5-dimethyl-1H-1,2,4-triazol-1-yl)-2-((R)-2-methylpyrrolidin-1-yl)pyrimidin-4-yl)cyclopropyl)-1-methyl-1H-benzo[d]imidazole] | 9.43
COc1ncc(Cc2nc(C)nn2-c2cc(CCc3ccc4ccccc4n3)nc(C)n2)nc1OC [Cpd 15, 2-(2-(6-(5-((5,6-dimethoxypyrazin-2-yl)methyl)-3-methyl-1H-1,2,4-triazol-1-yl)-2-methylpyrimidin-4-yl)ethyl)quinoline] | 10.25
COc1ccc(Cc2nc(C)nn2-c2cc(C3CC3c3cc4n(n3)CCC4)nc(C)n2)cc1OC (centres unmarked) [Cpd 42, 2-(2-(6-(5-(3,4-dimethoxybenzyl)-3-methyl-1H-1,2,4-triazol-1-yl)-2-methylpyrimidin-4-yl)cyclopropyl)-5,6-dihydro-4H-pyrrolo[1,2-b]pyrazole] | 9.30
Cc1nc(C)n(-c2cc([C@@H]3C[C@H]3c3nc4ccccc4n3C)nc(O)n2)n1 (relative stereo) [Cpd 125, trans-4-(3,5-dimethyl-1H-1,2,4-triazol-1-yl)-6-[2-(1-methyl-1H-benzimidazol-2-yl)cyclopropyl]pyrimidin-2-ol] | 7.72
COc1ccc(Cc2nc(C)nn2-c2cc(/C=C/c3ccc4ccccc4n3)nc(C)n2)cc1OC [Cpd 18, (E)-2-(2-(6-(5-(3,4-dimethoxybenzyl)-3-methyl-1H-1,2,4-triazol-1-yl)-2-methylpyrimidin-4-yl)vinyl)quinoline] | 11.70
Cc1nc(C)n(-c2cc([C@H]3C[C@@H]3c3nc4ccccc4n3C)nc(OCC3CC3)n2)n1 (relative stereo) [Cpd 120, trans-2-{2-[2-(cyclopropylmethoxy)-6-(3,5-dimethyl-1H-1,2,4-triazol-1-yl)pyrimidin-4-yl]cyclopropyl}-1-methyl-1H-benzimidazole] | 8.96
Cc1nc([C@@H]2C[C@H]2c2nc3ccccc3n2C)cc(-n2cnc(C)n2)n1 [Cpd 77, 1-methyl-2-{(1R,2R)-2-[2-methyl-6-(3-methyl-1H-1,2,4-triazol-1-yl)pyrimidin-4-yl]cyclopropyl}-1H-benzimidazole] | 8.05
CCc1nc([C@H]2C[C@@H]2c2nc3ccccc3n2C)cc(-n2nc(C)nc2C)n1 (relative stereo) [Cpd 119, trans-2-{2-[6-(3,5-dimethyl-1H-1,2,4-triazol-1-yl)-2-ethylpyrimidin-4-yl]cyclopropyl}-1-methyl-1H-benzimidazole] | 8.92
Cc1nc(C2CC2c2nnc(C)s2)cc(-n2nc(C)nc2C)n1 (centres unmarked) [Cpd 40, 2-(2-(6-(3,5-dimethyl-1H-1,2,4-triazol-1-yl)-2-methylpyrimidin-4-yl)cyclopropyl)-5-methyl-1,3,4-thiadiazole] | 6.91
Cc1nc([C@@H]2C[C@H]2c2nc3ccccc3n2C)cc(-n2nc(C)nc2C(C)(C)O)n1 [Cpd 98, 2-(3-methyl-1-{2-methyl-6-[(1R,2R)-2-(1-methyl-1H-benzimidazol-2-yl)cyclopropyl]pyrimidin-4-yl}-1H-1,2,4-triazol-5-yl)propan-2-ol] | 8.38
Cc1nc(C)n(-c2cc([C@H]3C[C@@H]3c3nc4ccccc4n3C)nc(OCCF)n2)n1 (relative stereo) [Cpd 122, trans-2-{2-[6-(3,5-dimethyl-1H-1,2,4-triazol-1-yl)-2-(2-fluoroethoxy)pyrimidin-4-yl]cyclopropyl}-1-methyl-1H-benzimidazole] | 8.92
COc1ccc(Cc2nc(C)nn2-c2cc(/C=C/c3ccccn3)nc(C)n2)cc1OC [Cpd 19, (E)-4-(5-(3,4-dimethoxybenzyl)-3-methyl-1H-1,2,4-triazol-1-yl)-2-methyl-6-(2-(pyridin-2-yl)vinyl)pyrimidine] | 11.70
Cc1nc(C)n(-c2cc([C@@H]3C[C@H]3c3nc4ccccc4n3C)nc(N3CC[C@@H](F)C3)n2)n1 [Cpd 134, 2-((1R,2R)-2-(6-(3,5-dimethyl-1H-1,2,4-triazol-1-yl)-2-((R)-3-fluoropyrrolidin-1-yl)pyrimidin-4-yl)cyclopropyl)-1-methyl-1H-benzo[d]imidazole] | 9.24
Cc1nc([C@@H]2C[C@H]2c2nc3ccc(F)cc3[nH]2)cc(-n2nc(C)nc2C)n1 [Cpd 68, 2-{(1R,2R)-2-[6-(3,5-dimethyl-1H-1,2,4-triazol-1-yl)-2-methylpyrimidin-4-yl]cyclopropyl}-6-fluoro-1H-benzimidazole] | 8.04
Cc1nc([C@@H]2C[C@H]2c2nc3ccccc3n2C)cc(-n2nc(Br)nc2C)n1 [Cpd 88, 2-{(1R,2R)-2-[6-(3-bromo-5-methyl-1H-1,2,4-triazol-1-yl)-2-methylpyrimidin-4-yl]cyclopropyl}-1-methyl-1H-benzimidazole] | 8.70
Cc1cc([C@H]2C[C@@H]2c2nc3ccccc3n2C)cc(-n2nc(C)nc2C)n1 (relative stereo) [Cpd 110, trans-2-{2-[2-(3,5-dimethyl-1H-1,2,4-triazol-1-yl)-6-methylpyridin-4-yl]cyclopropyl}-1-methyl-1H-benzimidazole] | 7.74

Reference: patent US9200001B2, “Triazolyl PDE10 inhibitors” (Merck Sharp & Dohme Corp., priority 2011, dated 2015)
